The target of this assay is T1, ATPase family AAA domain-containing protein 2 (Homo sapiens, UniProt Q6PL18).
T1 sequence (Q6PL18 whole entry): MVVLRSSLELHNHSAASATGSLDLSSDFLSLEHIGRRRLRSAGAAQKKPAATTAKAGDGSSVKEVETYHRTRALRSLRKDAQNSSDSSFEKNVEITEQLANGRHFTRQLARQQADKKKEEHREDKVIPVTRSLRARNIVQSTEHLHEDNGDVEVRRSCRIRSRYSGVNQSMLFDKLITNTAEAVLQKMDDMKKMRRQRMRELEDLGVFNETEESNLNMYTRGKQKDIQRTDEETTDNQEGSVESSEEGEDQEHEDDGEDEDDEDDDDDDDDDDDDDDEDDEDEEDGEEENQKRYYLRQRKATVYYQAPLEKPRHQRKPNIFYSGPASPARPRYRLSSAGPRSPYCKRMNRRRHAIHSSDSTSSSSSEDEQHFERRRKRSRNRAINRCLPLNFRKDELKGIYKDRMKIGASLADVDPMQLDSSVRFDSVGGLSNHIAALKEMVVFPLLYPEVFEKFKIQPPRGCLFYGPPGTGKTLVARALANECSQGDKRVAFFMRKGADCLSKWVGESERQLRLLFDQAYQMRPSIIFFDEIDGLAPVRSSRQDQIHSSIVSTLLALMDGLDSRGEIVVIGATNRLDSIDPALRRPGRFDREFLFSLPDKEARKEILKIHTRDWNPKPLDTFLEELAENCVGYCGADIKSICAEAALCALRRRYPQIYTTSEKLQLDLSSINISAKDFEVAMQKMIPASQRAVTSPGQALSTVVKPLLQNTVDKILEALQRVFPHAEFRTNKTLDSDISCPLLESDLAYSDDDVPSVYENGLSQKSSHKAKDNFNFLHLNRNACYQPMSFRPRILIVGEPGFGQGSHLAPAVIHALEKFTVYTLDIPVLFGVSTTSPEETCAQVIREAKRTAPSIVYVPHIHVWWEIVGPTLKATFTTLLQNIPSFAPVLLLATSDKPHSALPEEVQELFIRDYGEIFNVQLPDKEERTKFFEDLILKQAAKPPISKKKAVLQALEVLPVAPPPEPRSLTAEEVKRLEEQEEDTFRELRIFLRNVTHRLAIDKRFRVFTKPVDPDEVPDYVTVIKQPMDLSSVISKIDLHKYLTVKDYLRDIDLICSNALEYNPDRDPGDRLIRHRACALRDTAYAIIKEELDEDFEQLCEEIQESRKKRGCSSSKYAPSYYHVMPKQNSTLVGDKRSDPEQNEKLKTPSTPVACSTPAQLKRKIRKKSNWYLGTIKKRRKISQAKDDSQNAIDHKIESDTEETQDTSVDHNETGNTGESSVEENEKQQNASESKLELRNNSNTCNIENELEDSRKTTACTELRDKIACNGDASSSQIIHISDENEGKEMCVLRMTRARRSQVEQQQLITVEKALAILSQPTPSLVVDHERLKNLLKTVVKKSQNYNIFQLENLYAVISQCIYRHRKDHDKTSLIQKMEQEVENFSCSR
Nature of the assay: Inhibition of His-6 tagged recombinant human ATAD2 (981 to 1108 residues) expressed in Escherichia coli BL21 (DE3) rosetta cells by HTRF assay.

For the compound `Cn1cccc(NCC2CCNCC2)c1=O`, the concentration for half-maximal inhibition (IC50) worked out at 543 µM.

Turning to `Cn1cc(Br)cc(N)c1=O`, the IC50 worked out at 377 µM.

Take `Cn1ccc(NCc2ccccn2)c(N)c1=O`: the half-maximal inhibitory concentration (IC50) stood at 55 µM.

For the compound `CN1CCNc2c1ccn(C)c2=O`, the IC50 was found to be 822 µM.

For the origin of these results see ChEMBL document CHEMBL5223137, “Mapping Ligand Interactions of Bromodomains BRD4 and ATAD2 with FragLites and PepLites─Halogenated Probes of Druglike and Peptide-like Molecular Interactions” (J Med Chem, 2022).
